# What was measured:
# [1] = test system: 35S/TripleOp/Pro::RFP reporter; assay: Maize callus and seedling RFP de-repression; assay type: in vivo; conditions: 1 mg/l doxycycline; callus and plants with UBI::TetR expression cassette
# [2] = test system: BSV:tetOp or 35S:tetOp::dsRed with Ubi:ESR(3E3); assay: Maize callus RFP de-repression on chlorsulfuron selection; assay type: in vivo
# Excerpt: (§1) The BSV::tetOp promoter and the MP1::tetOp promoter were synthesized and cloned into expression cassettes driving expression of the DsRED (RFP) gene for testing. For all comparisons of RFP expression, side-by-side comparisons were made within experiment by taking micrographs of the tissue at the same exposure and qualitatively ranking fluorescence intensity, assigning the scores in the table below. The DsRED protein is very stable (has a relatively long half-life), and even with low expression levels in the cell can accumulate over time.
# Maize immature embryos were transformed with Agrobacterium as generally described in Example 5D. Transformants were generated that contained one of the two T-DNAs shown below: • RB-BSV:tetOp::Adh Intron::dsRed+ALS:HRA+Ubi:ESR(3E3)-LB • RB-35S:tetOp::Adh intron::dsRed+ALS:HRA+Ubi::ESR(3E3)-LB
# Selection of transgenic events was performed using 30, 100, or 500 μg/L chlorsulfuron.
# [3] = test system: tetA promoter (PtetA)-lacZ reporter in E. coli strain KM3; assay type: cell-based; conditions: L1 hits, 20 μg/ml
# [4] = test system: 35S PRO:3xTetOp:dsRED reporter with ESR(L13-2-23); assay: Rice callus RFP induction by sulfonylureas; assay type: in vivo; conditions: for RFP Score: 20 hours, rice callus
# Method: Mature seed of rice were surface sterilized and placed on callus induction medium (Chu (N6) salts, Eriksson's vitamins, 0.5 mg/L thiamine, 2 mg/L 2,4-D, 2.1 g/L proline, 30 g/L sucrose, 300 mg/L casein hydrolysate, and 100 mg/L myo-inositol, adjusted to pH 5.8). After one week, callus was transformed using Agrobacterium LBA4404, delivering the following T-DNA: • RB-35S PRO:3xTetOp:dsRED::pinII+35S PRO::Adh intron::ESR(L13-2-23)::UBI TERM+Sb-ALS PRO::HRA::pinII-LB
# Transgenic events were visually selected as […] calli growing on 100 PPB ethametsulfuron. […] Non-fluorescing events were then transferred to plates of medium containing varying amounts of sulfonylureas (SU). For the control, there was no SU, with additional treatments containing 100 or 500 ppb chlorsulfuron, and 100 or 500 ppb ethametsulfuron, After 20 hours of the induction treatment, micrographs were taken at the same exposure and scored (see Example 7 for scoring criteria) as shown in the table below
# as §1
# [5] = test system: BSV(AY) PRO::tetOp::ODP2 with ESR(3E3); assay: Inducible callus initiation from maize leaf pieces; assay type: in vivo; conditions: 100 mg/L chlorsulfuron, two weeks
# Method: Immature maize embryos from maize inbred PHN46 were transformed as describe in Example 5D using Agrobacterium comprising the following: • RB-BSV(AY) PRO::tetOp::Adh1 Intron::ODP2::pinII+35S ENH::ALS PRO::HRA::pinII+Ubi Pro::ESR(3E3)::pinII-LB.
# Events were selected on 100 μg/l chlorsulfuron, and plantlets were regenerated in the absence of the SU compound. When the plantlets were approximately 20 cm tall, the leaves were cut into approximately 2-4 mm cross-sections and placed on embryogenic culture medium+/−100 mg/L chlorsulfuron.
# [6] = test system: 35S PRO:tetOp::moCRE with ESR(L13-2-23), loxP AmCYAN/ZsYELLOW reporter; assay: Ethametsulfuron-induced Cre excision in rice callus; conditions: rice calli, 250 μg/L ethametsulfuron, one week
# Method: (§2) Herbicide-resistant, blue fluorescent co-transformed calli were recovered and tested for SU-inducible excision. Calli were split onto media+/−250 μg/L ethametsulfuron.
# [7] = test system: 35S PRO:tetOp::moCRE with ESR(L13-2-23), lox66/lox71 AmCYAN/ZsYELLOW reporter; assay: Ethametsulfuron-induced Cre inversion in maize callus; conditions: 250 μg/L ethametsulfuron, one week
# [8] = test system: 35S PRO:tetOp::moCRE with ESR(L13-2-23), loxP AmCYAN/ZsYELLOW reporter; assay: Ethametsulfuron-induced Cre excision in maize callus; conditions: maize calli, 250 μg/L ethametsulfuron, one week
# Method: as §2
compound,measurement,setting,value
C[C@H]1c2cccc(O)c2C(=O)C2=C(O)[C@]3(O)C(=O)C(C(N)=O)=C(O)[C@@H](N(C)C)[C@@H]3[C@@H](O)[C@@H]21 [doxycycline],induction period,[1],5 to 6 days
"COc1nc(C)nc(NC(=O)NS(=O)(=O)c2ccccc2Cl)n1 [chlorsulfuron, 2 chloro N((4 methoxy 6 methy 1,3,5 triazine 2 yl)aminocarbonyl)benzenesulfonamide]",RFP Score,"[2]; 30 μg/l, six weeks",0
same,RFP fluorescence,"[2]; 100 μg/l, six weeks",small sectors of RFP fluorescence were observed
same,RFP fluorescence,"[2]; 500 μg/l, six weeks",large segments of the calli were brightly fluorescing
same,"activity as inducer of the ethametsulfuron repressor, fold less",[2]; in vivo,approximately 10 fold
same,potency as activator compared with Harmony®,[3],more potent activators than the starting ligand Harmony®
same,RFP Score,[4]; 100 ppb,0-1
same,RFP Score,[4]; 500 ppb,2-3
same,callus initiation from leaf pieces,[5],producing callus from the leaf segments
"CCOC(=O)c1ccccc1S(=O)(=O)NC(=O)Nc1nc(Cl)cc(OC)n1 [chlorimuron, Chlorimuron-ethyl]",potency as activator compared with Harmony®,[3],more potent activators than the starting ligand Harmony®
"CCOc1nc(NC)nc(NC(=O)NS(=O)(=O)c2ccccc2C(=O)OC)n1 [ethametsulfuron, Ethametsulfuron-methyl]",SU-inducible excision,[6],yellow fluorescent sectors were observed
same,SU-inducible inversion,[7],sectors exhibiting only yellow fluorescent
same,potency as activator compared with Harmony®,[3],more potent activators than the starting ligand Harmony®
same,"level of RFP induction, comparison of ligands",[4]; 100 and 500 ppb,induced to a greater level than chlorsulfuron
same,RFP Score,[4]; 100 ppb,1-2
same,RFP Score,[4]; 500 ppb,4
same,SU-inducible excision,[8],yellow fluorescent sectors were observed
